The record followed here is patent US8022235B2, “Compositions of phospholipid ether boronic acids and esters and methods for their synthesis and use” (Cellectar, Inc., priority 2007, dated 2011).

Each structure is given as a SMILES string.

The nature of series [1]: Human safety studies of unlabeled NM404. In kind it is in vivo. The note with it: normal male humans, mass of 10 times the anticipated imaging dose. The method, then:
Formal toxicology studies of NM404 in male rats and rabbits were performed at the Toxicology Research Center of the State University of New York at Buffalo under the direction of Dr. Paul Kostyniak. Drug vehicle and drug product were provided to Dr. Kostyniak by Dr. Raymond Counsell of the University of Michigan for testing as described in the appended synopses of Study 27 and Study 28. […] Human safety studies of unlabeled NM404 were initiated in normal male humans at a mass of 10 times the anticipated imaging dose and about 21 times the anticipated therapy dose. […] This toxicology study was performed under GLP conditions.

The next series has as its system Melanoma A-375. Kind of series: Imaging and tissue distribution, tumor model. The class given is in vivo, Nude Mouse. The note with it: Adenocarcinoma.
The next series has as its system Mammary SCC and ACC. Put plainly: Imaging and tissue distribution, tumor model; therapeutic responses at imaging doses. The class given is in vivo, Apc^Min/+mouse. To be noted: Squamous cell carcinoma and Adenocarcinoma. An excerpt:
During the course of mouse tumor uptake and retention studies with “imaging” doses (15-20 μCi/20 g mouse) of ^125I-labeled NM404, several apparent therapeutic responses have been observed (unpublished results). […] Some of these animals also lost all hair above larger mammary tumors at around 8 days after injection. Moreover, these mice also get intestinal tumors and usually suffer from intestinal bleeding resulting in severe anemia, which renders their feet white. […] Another compelling example of tumor regression is illustrated in FIG. 13. Two litter mates each received SCC1 and SCC6 xenografts in their left and right flanks, respectively. One mouse received a single injection of ^125I-NM404 (20 μCi). […] These coincidental findings were reconfirmed in two separate age-matched groups each involving more than 6 mice.

In series [2] the test system is A549 human non-small cell lung cancer xenografts. Put plainly: Single-dose 125I-NM404 treatment, tumor volume, A549 xenografts. The class given is in vivo, SCID mice. To be noted: unlabeled compound (control group), 10-week assessment. An excerpt: FIG. 3 illustrates antitumor effect of single-dose treatment with ^125I-125-NM404 at doses of 50 (∘), 150 (□), 250 (⋄) and 500 (∘) μCi in SCID mice bearing A549 human non-small cell lung cancer xenografts. In FIG. 3, control animals show rapidly growing tumors over the 10-week assessment period. […] Tumor volumes are stable and some tumors appear “collapsed” (the tumor surface has collapsed). Additionally, hair above the tumors fell off confirming substantial accumulation of radioactivity in these tumors.
FIG. 4 is an image showing one of the tumor-bearing animals treated with 250 μCi of ^125I-NM404 at 4 weeks following injection. The hair above the tumor has fallen off, apparently due to the significant accumulation of radioactivity in the tumor. […] The measurement method for determining outer tumor dimensions may have underestimated tumor volume response following dosing with ^125I-NM404;
The inventors have previously shown that ^125I-labeled PLE analogs such as NM404 are effective in targeting tumor therapies to tumor cells following single injection and fractionated dosing. For assessment of efficacy of ^125I-NM404 treatment, assessments of tumor volume were made until 10 weeks post-injection or until no animal in the control group was alive, whatever came first. Summarizing the results, control animals show rapidly growing tumors over the 10-week assessment period. See, FIGS. 2 and 3. […] Tumor volumes are stable and the same tumors appear “collapsed” (the tumor surface has caved in). Additionally, the hair above the tumors fell off confirming substantial accumulation of radioactivity in these tumors, FIG. 4. […] (See also, for example, U.S. patent application Ser. No. 11/671,403 hereby incorporated in its entirety for all purposes.)

The test system of another series is Hepatocellular Carcinoma. Kind of series: Imaging and tissue distribution, tumor model. The note with it: Adenocarcinoma. In kind it is in vivo, Spontaneous TGF-α mouse.
The next series relates to Glioma L9. Kind of series: Imaging and tissue distribution, tumor model. In kind it is in vivo, Rat.
Another series deals with Lung NCI H-69 (Oat Cell). Put plainly: Imaging and tissue distribution, tumor model. The note with it: Adenocarcinoma. In kind it is in vivo, Nude Mouse.
For another series, the system named is Adrenal RL-251. Put plainly: Imaging and tissue distribution, tumor model. The class given is in vivo, SCID Mouse.
The subject of series [3] is Walker-256 carcinosarcoma. Kind of series: Tissue distribution of radioactivity in Walker-256 carcinosarcoma model. The class given is in vivo, rats. The method, then:
(§1) The avidity of PLE and APC analogs to localize in tumors was evaluated in several animal models. The PC-3 model represents a human tumor cell line that was used to determine the target (tumor) to non-target ratio of NM404 and NM412 in head to head comparison in order to select a candidate for an initial human pharmacokinetic trial in prostate cancer patients. The MatLyLu (Dunning R3327 rat) model, a rat prostate tumor line, was used specifically to screen 9 specific analogs prior to entering them into control for dosimetry and tumor-bearing animals for determining tumor/background ratios. Finally, the Walker-256 carcinosarcoma model was used for quantitative tissue distribution purposes.
In order to expedite the screening process and minimize the number of tumor bearing animals utilized in multiple time point tissue distribution studies, new radioiodinated homologs were imaged by gamma camera scintigraphy in the rat Dunning […] (MAT LyLu strain) prostate cancer model. Thus, male Copenhagen rats received a subcutaneous injection of MAT LyLu cells (1×10^6 cells) in the thigh 10-14 days prior to injection of the radioiodinated PLE analogs (30-40 μCi) in 2% Tween-20 solution. Gamma camera images were obtained at multiple time points including 24 and 48 hours post injection. […] Tissue distribution of radioactivity in rats bearing Walker-256 carcinosarcoma was assessed at various time intervals following intravenous administration of the radioiodinated chain length homologs. The first group of compounds that was tested included three alkylphosphocholines: a shorter chain analog with seven carbons NM396 and two analogs with a longer chain length, 13 (NM397, C15 alkyl chain length) and 1 (NM404, C18 alkyl chain length).

Series [4] has as its system human PC-3 prostate tumor xenografts. Put plainly: Scintigraphy, microPET and tissue distribution in PC-3 tumor model. The class given is in vivo, SCID mice. The method, then: as §1
Gamma camera scintigraphy images shown in FIG. 5 directly compare the tumor uptake and body clearance of second generation analog ^125I-NM404 (1) versus its shorter chain, first generation predecessor, ^125I-NM324 (12-(m-iodophenyl)dodecyl phosphocholine) at 1, 2, and 4 days post administration in immune-compromised SCID mice bearing human PC-3 prostate tumor xenografts.
Tumor uptake, however, continued to increase up until day 5 when it reached 18% injected dose per gram of tumor. […] Tumor to background tissue ratios exceeded 4, 6.8, 23, and 9 in blood, liver, muscle, and prostate, respectively, 3 days after injection and continued to improve at 5 and 8 days. Again, although thyroid levels ranged from 26 to 54% injected dose per gram of tissue, these levels are actually quite low and represent an extremely small percentage of the injected dose when the exceedingly small mass of the organ is considered and the data are presented on a percent administered dose per organ basis.

Text for Glioma L9: (§2) Imaging and tissue distribution studies performed in mouse models aimed at determining the uptake characteristics in a wide variety of tumor models are summarized in Table 1, below.
Text for Hepatocellular Carcinoma: as §2

For `C[N+](C)(C)CCOP(=O)([O-])OCCCCCCCCCCCCCCCCCCc1ccc(I)cc1` [NM404, 18-(p-iodophenyl)-octadecyl phosphocholine], the toxicity result in series [1] is reported as “no toxicity attributable to the drug substance”. The Uptake result in the series with Melanoma A-375 is given as “Yes”; in the series with Mammary SCC and ACC, “Yes”; in the series with Hepatocellular Carcinoma it was “Yes”; in the series with Glioma L9 it was “Yes”; in the series with Lung NCI H-69 (Oat Cell), “Yes”; in the series on Adrenal RL-251 (Adenocarcinoma) it was “Yes”. Besides, the Uptake entry is listed as “Yes” in series [3] (Carcinosarcoma) and “Yes” in series [4] (Prostate PC-3, Adenocarcinoma). The “effect on tumor growth” value in series [2] is given as “no substantial effect on tumor growth”. Further, the tumor retention entry with Adrenal RL-251 (human adrenal tumor xenograft, FIG. 7) was “Prolonged tumor retention”. Besides, the “peak radioactivity in the tumor” value in series [3] (48 hours after administration) is listed as 1.14±0.01 % of ID/g. Besides, in [3] (120 hours), the blood levels is 0.6±0.1 % of ID/g. Also, the “time of peak radioactivity in the tumor” value in series [3] (after intravenous administration) is 48 h. Besides, the “total radioactivity levels in the thyroid” value in series [3] (considering the small mass of the gland) is listed as “relatively low”. Further, the “radioactivity in liver, kidney and duodenum compared with C15 analog 13” value in [3] (rat, in vivo) is “significantly lower”. Also, in series [4] (3 days after injection), the “tumor to background tissue ratio, blood” value is listed as “exceeded 4”. For the same compound, the “tumor to background tissue ratio, liver” value in series [4] (3 days after injection) is reported as above 6.8. Further, the “tumor to background tissue ratio, muscle” value in series [4] (3 days after injection) is above 23. For the same compound, in [4] (3 days after injection), the “tumor to background tissue ratio, prostate” value is on record as above 9. The “elimination of radioactivity from normal tissues” value in series [4] (8 day evaluation period) is recorded as “rapid elimination of radioactivity from all normal tissues”. The tumor uptake result is “exceeding 25 % of the injected dose” in series [4] (SCID mouse prostate and A549 lung cancer tumor models); 18 % injected dose per gram of tumor in series [4] (radioiodinated NM404, day 5 (maximum)). Besides, the “liver and background radioactivity” value in series [4] (scintigraphy at 1, 2 and 4 days, compared with NM324) is reported as “much improved”.
